Data published in patent US20260191874A1, “FUSED AMINO PYRIMIDINE COMPOUNDS FOR TREATMENT OF AUTISM SPECTRUM DISORDER, OBSESSIVE COMPULSIVE DISORDER AND TICS” (Ovid Therapeutics Inc., priority 2024, published 2026).

Target: T1, KCC2 (Homo sapiens, UniProt Q9H2X9)
T1 construct: expressed in transfected cells; host or cells: HEK-293 (ATCC CRL-1573)
T1 sequence (Q9H2X9 1-1116 isoform Q9H2X9-2): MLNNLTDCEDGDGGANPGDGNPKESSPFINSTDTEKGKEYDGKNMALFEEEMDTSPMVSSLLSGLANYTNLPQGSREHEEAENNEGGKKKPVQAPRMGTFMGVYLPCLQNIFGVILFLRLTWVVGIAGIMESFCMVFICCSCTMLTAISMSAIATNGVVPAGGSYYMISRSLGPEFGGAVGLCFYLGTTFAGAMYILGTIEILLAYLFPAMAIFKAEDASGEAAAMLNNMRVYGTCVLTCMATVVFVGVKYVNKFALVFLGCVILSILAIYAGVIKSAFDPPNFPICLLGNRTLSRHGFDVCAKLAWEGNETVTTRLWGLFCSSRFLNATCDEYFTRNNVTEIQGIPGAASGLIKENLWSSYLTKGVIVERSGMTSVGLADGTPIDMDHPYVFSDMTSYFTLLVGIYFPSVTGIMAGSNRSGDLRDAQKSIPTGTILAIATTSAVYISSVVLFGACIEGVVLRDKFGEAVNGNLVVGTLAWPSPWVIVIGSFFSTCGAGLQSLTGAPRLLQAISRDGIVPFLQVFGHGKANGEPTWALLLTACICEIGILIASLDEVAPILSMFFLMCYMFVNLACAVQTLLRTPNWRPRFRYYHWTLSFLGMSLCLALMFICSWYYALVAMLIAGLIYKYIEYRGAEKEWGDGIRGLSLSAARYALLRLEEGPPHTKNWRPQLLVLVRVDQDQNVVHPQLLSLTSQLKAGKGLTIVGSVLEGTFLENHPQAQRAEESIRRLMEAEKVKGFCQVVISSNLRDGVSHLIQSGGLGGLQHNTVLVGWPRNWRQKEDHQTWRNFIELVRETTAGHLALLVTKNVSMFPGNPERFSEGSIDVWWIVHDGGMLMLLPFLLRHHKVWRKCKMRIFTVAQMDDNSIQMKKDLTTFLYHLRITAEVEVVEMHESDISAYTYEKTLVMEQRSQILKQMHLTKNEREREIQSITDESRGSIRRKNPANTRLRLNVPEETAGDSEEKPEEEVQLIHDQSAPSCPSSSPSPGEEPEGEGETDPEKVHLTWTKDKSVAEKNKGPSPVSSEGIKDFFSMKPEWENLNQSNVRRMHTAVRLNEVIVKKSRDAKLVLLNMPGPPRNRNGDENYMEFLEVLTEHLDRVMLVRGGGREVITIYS
Assay: Cell surface biotinylation of KCC2 in HEK-293 cells
Format: cell-based
Settings: 15 min
Description: Cell Culture and biotinylation. HEK-293 cells were purchased from ATCC (CRL-1573) and transfected with human KCC2 and GFP expression plasmids using Lipofectamine 2000. Cells were utilized for experimentation 48-72 h following transfection. Cells were biotinylated at 4° C. using NHS-Biotin. Following lysis and purification on immobilized avidin beads, cell surface and total fractions were subject to immunoblotting as outlined previously (Conway et al., 2017, supra).
The reliability of the biotinylation procedure was assessed via immunoblotting with antibodies against the cytosolic protein actin. Actin was present in the total lysates but was absent from the surface fractions (FIG. 2C).

With `C[C@@H]1CN(c2nc3c(c(Nc4ccc(C5CCCCC5)cc4)n2)COC3)CCO1` [Compound A, (R)—N-(4-cyclohexylphenyl)-2-(2-methylmorpholino)-5,7-dihydrofuro[3,4-d]pyrimidin-4-amine] the “level of KCC2 on the plasma membrane (surface/total)” value (0.3 μM) was 94.5±8.4 % of control and the “level of KCC2 on the plasma membrane (surface/total)” value (3 μM) was 104.7±8.4 % of control.
